Data reported in ChEMBL document CHEMBL5154806, “Synthesis and Profiling of Highly Selective Inhibitors of Methyltransferase DOT1L Based on Carbocyclic C-Nucleosides” (J Med Chem, 2022).

Legend:
[1] = target: T1, Histone-lysine N-methyltransferase, H3 lysine-79 specific (Homo sapiens, UniProt Q8TEK3); assay: Inhibition of human DOT1L by hotspot PMT activity assay
Target sequence in this assay (Q8TEK3 whole entry): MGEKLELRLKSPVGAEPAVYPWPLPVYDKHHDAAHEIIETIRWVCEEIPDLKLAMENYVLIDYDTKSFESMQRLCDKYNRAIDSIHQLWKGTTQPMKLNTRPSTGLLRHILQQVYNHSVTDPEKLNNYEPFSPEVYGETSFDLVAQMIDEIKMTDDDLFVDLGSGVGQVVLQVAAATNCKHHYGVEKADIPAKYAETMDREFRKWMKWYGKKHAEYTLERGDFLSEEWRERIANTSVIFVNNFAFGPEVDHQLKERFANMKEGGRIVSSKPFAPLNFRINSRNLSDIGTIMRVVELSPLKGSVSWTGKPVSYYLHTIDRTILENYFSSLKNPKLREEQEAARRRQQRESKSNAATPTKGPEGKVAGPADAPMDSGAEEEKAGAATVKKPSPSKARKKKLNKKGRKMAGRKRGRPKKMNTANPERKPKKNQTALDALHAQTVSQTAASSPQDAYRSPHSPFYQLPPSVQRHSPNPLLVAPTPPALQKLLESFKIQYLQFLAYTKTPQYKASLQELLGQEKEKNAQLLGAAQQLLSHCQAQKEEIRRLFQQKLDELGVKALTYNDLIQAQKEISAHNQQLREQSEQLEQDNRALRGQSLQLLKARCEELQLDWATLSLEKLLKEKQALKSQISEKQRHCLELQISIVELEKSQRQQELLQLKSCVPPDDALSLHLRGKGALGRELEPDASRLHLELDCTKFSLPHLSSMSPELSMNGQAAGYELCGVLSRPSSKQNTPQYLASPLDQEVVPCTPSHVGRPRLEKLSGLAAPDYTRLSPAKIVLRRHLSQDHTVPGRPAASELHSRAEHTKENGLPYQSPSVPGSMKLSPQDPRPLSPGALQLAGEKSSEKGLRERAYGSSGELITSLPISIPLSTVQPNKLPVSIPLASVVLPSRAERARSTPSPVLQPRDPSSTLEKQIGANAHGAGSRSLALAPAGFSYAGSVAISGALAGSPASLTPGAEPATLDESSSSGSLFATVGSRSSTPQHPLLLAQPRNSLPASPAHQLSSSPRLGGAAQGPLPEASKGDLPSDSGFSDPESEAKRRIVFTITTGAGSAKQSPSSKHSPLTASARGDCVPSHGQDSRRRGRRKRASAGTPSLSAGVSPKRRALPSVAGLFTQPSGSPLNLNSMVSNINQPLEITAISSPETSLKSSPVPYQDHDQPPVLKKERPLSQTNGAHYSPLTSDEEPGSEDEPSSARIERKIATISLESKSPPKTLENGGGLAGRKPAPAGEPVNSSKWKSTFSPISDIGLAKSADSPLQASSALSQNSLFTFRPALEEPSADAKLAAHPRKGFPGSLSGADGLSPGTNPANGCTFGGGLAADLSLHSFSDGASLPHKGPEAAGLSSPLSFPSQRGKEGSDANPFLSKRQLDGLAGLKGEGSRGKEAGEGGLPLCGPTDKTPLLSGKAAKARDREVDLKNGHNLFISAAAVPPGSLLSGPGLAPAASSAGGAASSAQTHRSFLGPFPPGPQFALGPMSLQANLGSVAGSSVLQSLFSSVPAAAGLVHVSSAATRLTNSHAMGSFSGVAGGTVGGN

[2] = Cmax in fasted BALB/c mouse at 20 mg/kg, iv administered upto 600 mins by HPLC-MS/MS analysis; format: ADME, organism-based; design: time < 600 min, dose 20 mg/kg, route iv; conditions: in vivo
[3] = Volume of distribution in fasted BALB/c mouse at 20 mg/kg, iv administered upto 600 mins by HPLC-MS/MS analysis; format: ADME, organism-based; conditions: in vivo
[4] = Clearance in fasted BALB/c mouse at 20 mg/kg, iv administered upto 600 mins by HPLC-MS/MS analysis; format: ADME, organism-based; conditions: in vivo
[5] = AUC (0 to t) in fasted BALB/c mouse at 20 mg/kg, iv administered upto 600 mins by HPLC-MS/MS analysis; format: ADME, organism-based; design: dose 20 mg/kg, time < 600 min, route iv; conditions: in vivo
[6] = Tmax in fasted BALB/c mouse at 20 mg/kg, iv administered upto 600 mins by HPLC-MS/MS analysis; format: ADME, organism-based; conditions: in vivo
[7] = Elimination rate constant in fasted BALB/c mouse at 20 mg/kg, po administered upto 600 mins by HPLC-MS/MS analysis; format: ADME, organism-based; conditions: in vivo
[8] = Bioavailability in fasted BALB/c mouse at 20 mg/kg, iv administered upto 600 mins by HPLC-MS/MS analysis; format: ADME, organism-based; conditions: in vivo
[9] = Tmax in fasted BALB/c mouse at 20 mg/kg, po administered upto 600 mins by HPLC-MS/MS analysis; format: ADME, organism-based; conditions: in vivo
[10] = AUC (0 to t) in fasted BALB/c mouse at 20 mg/kg, po administered upto 600 mins by HPLC-MS/MS analysis; format: ADME, organism-based; design: dose 20 mg/kg, time < 600 min, route po; conditions: in vivo
[11] = AUC (0 to infinity) in fasted BALB/c mouse at 20 mg/kg, iv administered upto 600 mins by HPLC-MS/MS analysis; format: ADME, organism-based; design: dose 20 mg/kg, time < 600 min, route iv; conditions: in vivo
[12] = Half life in fasted BALB/c mouse at 20 mg/kg, iv administered upto 600 mins by HPLC-MS/MS analysis; format: ADME, organism-based; conditions: in vivo
[13] = Half life in fasted BALB/c mouse at 20 mg/kg, po administered upto 600 mins by HPLC-MS/MS analysis; format: ADME, organism-based; conditions: in vivo
[14] = Elimination rate constant in fasted BALB/c mouse at 20 mg/kg, iv administered upto 600 mins by HPLC-MS/MS analysis; format: ADME, organism-based; conditions: in vivo
[15] = Cmax in fasted BALB/c mouse at 20 mg/kg, po administered upto 600 mins by HPLC-MS/MS analysis; format: ADME, organism-based; design: time < 600 min, dose 20 mg/kg, route po; conditions: in vivo
[16] = AUC (0 to infinity) in fasted BALB/c mouse at 20 mg/kg, po administered upto 600 mins by HPLC-MS/MS analysis; format: ADME, organism-based; design: dose 20 mg/kg, time < 600 min, route po; conditions: in vivo
[17] = target: T1, Histone-lysine N-methyltransferase, H3 lysine-79 specific; assay: Binding affinity to human DOT1L assessed as binding free energy difference
Target sequence in this assay (Q8TEK3 whole entry, looked up): as the sequence (Q8TEK3 whole entry) above

CN(CCCNC(=O)Nc1ccc(C(C)(C)C)cc1)C[C@H]1C[C@@H](c2cnn3c(N)ccnc23)[C@H](O)[C@@H]1O
IC50 [1]: > 10000 nM

CN(CCCNC(=O)Nc1ccc(C(C)(C)C)cc1)C[C@H]1C[C@@H](c2ccc3c(N)ncnn23)[C@H](O)[C@@H]1O (stereo in doubt; (-)-25)
Cmax [2]: 8320 ng/mL
Vd [3]: 18.4 L/kg
clearance [4]: 108 mL/min/kg
AUC(0-t) at 10 h [5]: 3020 ng·h/mL
Tmax [6]: 5 min
k el at 10 h [7]: 0.0017 s⁻¹
bioavailability [8]: 0.3%
Tmax [9]: 5 min
AUC(0-t) at 10 h [10]: 8.07 ng·h/mL
IC50 [1]: 19 nM
AUC(0-inf) [11]: 3080 ng·h/mL
half-life [12]: 118 min
half-life [13]: 6.78 min
k el at 10 h [14]: 9.82e-05 s⁻¹
Cmax [15]: 36.4 ng/mL
AUC(0-inf) [16]: 8.53 ng·h/mL

CN(CCCNC(=O)Nc1ccccc1)C[C@H]1C[C@@H](c2cnn3c(N)ccnc23)[C@H](O)[C@@H]1O
deltaG [17]: 2.63 kcal/mol

CN(CCCNC(=O)Nc1ccc(C(C)(C)C)cc1)C[C@H]1C[C@@](O)(c2ccc3c(N)ncnn23)[C@H](O)[C@@H]1O
IC50 [1]: > 10000 nM

CN(CCCNC(=O)Nc1ccc(C(C)(C)C)cc1)C[C@H]1C[C@@H](c2ccc3c(N)ncnn23)[C@H](O)[C@@H]1O (stereo in doubt; (+)-25)
deltaG [17]: -0.239 kcal/mol

CC(C)N(CCCNC(=O)Nc1ccccc1)C[C@H]1C[C@@H](c2ccc3c(N)ncnn23)[C@H](O)[C@@H]1O
deltaG [17]: -0.717 kcal/mol

Nc1ncnn2c([C@@H]3C[C@H](CO)[C@@H](O)[C@H]3O)ccc12
IC50 [1]: > 10000 nM

CC(C)N(C[C@H]1C[C@@H](c2ccc3c(N)ncnn23)[C@H](O)[C@@H]1O)[C@H]1C[C@H](CCc2nc3cc(C(C)(C)C)ccc3[nH]2)C1 (racemic)
IC50 [1]: 13.8 nM

CC(C)NC[C@@H]1C[C@H](c2ccc3c(N)ncnn23)[C@@H](O)[C@H]1O
Cmax [2]: 18400 ng/mL
Vd [3]: 4.43 L/kg
clearance [4]: 46 mL/min/kg
AUC(0-t) at 10 h [5]: 7170 ng·h/mL
Tmax [6]: 5 min
k el at 10 h [7]: 0.000457 s⁻¹
bioavailability [8]: 12%
Tmax [9]: 120 min
AUC(0-t) at 10 h [10]: 830 ng·h/mL
AUC(0-inf) [11]: 7250 ng·h/mL
half-life [12]: 66.7 min
half-life [13]: 25.3 min
k el at 10 h [14]: 0.000173 s⁻¹
Cmax [15]: 645 ng/mL
AUC(0-inf) [16]: 845 ng·h/mL
